Laboratory results: US8557767B2, “Synthetic apolipoprotein E mimicking polypeptides and methods of use” (UAB Research Foundation, priority 2007, dated 2013)

Assays:
apo E null mice = assay: Atherosclerosis inhibition in apo E null mice, retroorbital administration, en face lesion analysis; type: in vivo
Description: Extent of lesion is analyzed by en face preparation and staininf with Oil Red O.
Atherosclerosis inhibition studies in apo E null mice that develop atherosclerosis spontaneously were also performed. […] Lesion analysis was performed using the en face preparations. Sixteen week old mice would have well established lesions. […] Detailed studies on the mechanism of the inhibition of atherosclerosis are described below.

HepG2 cells = assay: Apo A-I / prebeta-HDL secretion by HepG2 cells; type: cell-based
[1] = tested on: monocyte chemotaxis protein-1 (MCP-1); assay: LPS-induced MCP-1 in HUVEC; type: cell-based, human
Text: The effect of the peptide on the inflammatory response of bacterial lipopolysaccaride (LPS), a potent inducer of cytokines and cell adhesion molecules was also examined.

[2] = tested on: THP-1 monocyte derived macrophages; assay: Secretion of de novo synthesized apo E by THP-1 monocyte derived macrophages; type: cell-based; conditions: 25 ug/10^6 cells, 35S-methionine, densitometry
Description: Bands were developed by autoradiography and quantitated by densitiometry.
THP-1 monocyte derived macrophages were metabolically labeled with ^35S-methionine in RPMI medium containing FBS. Macrophages (10^6 cells) were treated with the dual-domain peptide (25 tjg/10^6 cells) for 5. Conditioned medium was collected and cells were washed with cold PBS. Preparative cocktail containing MEM, plus lupeptin (50 tjg/ml), pepstatin A (50 tjg/ml), and aprotinin (100 kallikrein inactivating units/ml) were added to the medium to preserve oxidative and proteolytic damage. The medium from control cells and peptide-treated medium were concentrated to equal volume and loaded quantitatively on SDS-polyacrylamide gels (4 to 20% PAGE for 2.5 h at 4° C. at 125 volts). The gel was exposed to x-ray film for overnight.

[3] = tested on: C57BL/6 on normal chow, LDL-R(null) mice; assay: Plasma cholesterol in C57BL/6 on normal chow and LDL-R(null) mice; type: in vivo; conditions: LDL-R(null) on normal chow or on a Western diet
Text: (§1) Although Ac-hE-18A-NH2 enhanced the hepatic uptake and degradation of atherogenic lipoproteins in apo E null mice, dual knockout mice (LDL-R(null)-apo E(null)), and C57BL/6 on an atherogenic diet, the peptide had no effect on the plasma cholesterol levels of C57BL/6 on normal chow, LDL-R(null) on normal chow or on a Western diet. […] However, the peptide is able to associate with human LDL (containing apo B-100) and VLDL and is able to enhance uptake and degradation of atherogenic human lipoproteins in HepG2 cells and in LDL-R (null) mouse model (Garber, D. W. et al. Atherosclerosis. 163:229-237 2003). The reason for the difference in the properties of apo B-100-containing human LDL and mouse LDL is not clear.

[4] = tested on: B-100-containing particles; assay: Association of peptide with mouse apo B-100-containing particles; type: binding; conditions: LDL-R (null) and C57BL6 on normal chow
Text: as §1

[5] = tested on: NZW rabbits on 1% cholesterol diet; assay: Peptide administration to NZW rabbits on 1% cholesterol diet; type: in vivo, rabbit
Description: Administration of Ac-hE18A-NH2 to high fat diet administered rabbits with initial cholesterol values in the range of 600 mg/dl (1 week on 1% cholesterol diet). […] A 50% decrease in plasma cholesterol was observed after administration of the peptide.
This occurs through a lowering of plasma lipid hydroperoxide levels concomitant with a significant increase in the plasma paraoxonase (PON-1) activity. In the WHHL model, the LDL-R pathway is compromised, thus the accelerated atherogenic lipoprotein clearance is likely via the cell surface HSPG-mediated pathway, as described earlier in murine models (Garber, D. W. et al. Atherosclerosis. 163:229-237 2003).
It has been shown that very small amounts of D-4F, a class A amphipathic helical peptide, modifies several HDL properties (Navab, M., et al. Circulation 109:3215-3220 2004). […] NZW rabbits have been studied for hypercholesterolemia and relative LDL and β-VLDL production using diets containing different amounts of cholesterol (Holvoet, P. et al. Arterioscl. Thromb. Vasc. Biol. 17:2376-2382 1997). Thus, with 0.125% (w/w) cholesterol diet, LDL cholesterol levels increase; with 0.5% and higher cholesterol levels in the diet, […]-VLDL (containing apo B-100) increases dramatically. These β-VLDL particles contain increased amounts of oxidized lipids, thus enhancing the progression of atherosclerosis (Holvoet, P. et al. Arterioscl. Thromb. Vasc. Biol. 17:2376-2382 1997). To assess the effect of the peptide in this rabbit model, a 1% cholesterol diet fed NZW rabbits were utilized.
Rabbits responding to high cholesterol diet were randomized one week after the start of the diet to select rabbits with similar response (similar amounts of total plasma cholesterol). […] After 14 days from the first administration, plasma samples were taken from both the peptide-administered and saline administered (control) rabbits (n=3 in each group). The plasma samples from the peptide administered rabbits were not turbid, whereas the plasma samples from control rabbits were turbid. […] A second dose of peptide was administered 15 days after the first treatment. Since the cholesterol levels remained low two weeks after the second administration in peptide-administered rabbits, these and saline administered rabbits were sacrificed 51 days after the initiation of the diet. Aorta from the peptide administered and control rabbits were stained with Oil Red O. Aorta from the peptide administered rabbits had 40-50% less lesion than the control rabbit aorta.
Therefore, possible reasons for the clearance of atherogenic lipoproteins can be in addition to rapid hepatic clearance similar to the properties of apo E, modulation of HDL properties or synthesis of macrophage apo E. If this is true, this peptide may also exert its effect on endothelial function. Indeed it was observed that there is a recovery of endothelial function as studied by the acetylcholine dose-dependent aortal relaxation (FIG. 13). […] It is possible that lipid lowering can cause reduction of oxidative stress and thus inhibition of endothelial activation.
Results observed in HepG2 cells indicate that peptide associates with apo B-containing plasma lipoproteins to incorporate positive charges on the lipoprotein surface. This enables the apo B-containing lipoproteins to interact with heparan sulphate proteoglycans (HSPGs). The effect of these peptides on the mode of reduction of plasma cholesterol levels in mouse models and the two rabbit models can be determined. In NZW rabbits fed a 1% cholesterol-diet, a reduction of plasma cholesterol is observed which lasts for 14 days after the peptide administration; whereas in the WHHL rabbits, the reduction is initially rapid and returns to original levels within 3 days. Since the WHHL rabbit model is LDL-receptor defective, the differential effects of the peptide in two models can be due to differences in the receptor-mediated clearance pathways of atherogenic lipoproteins. […]

[6] = 3 mg/kg; 6 weeks of 1% cholesterol diet, one month after administration; not significantly different from control
Description: For these studies, NZW rabbits that respond to diet can be selected. All animals are fed a 1% cholesterol diet and their cholesterol values determined three days after the diet initiation. Twenty rabbits with similar cholesterol levels can be selected and changed back to a normal diet. After 15 days on a normal diet, cholesterol values can once again be determined to check if the values returned to normal. Animals whose cholesterol values have not returned to pre-diet levels can be monitored until they are normalized or removed from the study. Ten rabbits in each group are selected and simultaneous peptide administration and 1% diet initiation can follow. […] To study dose-response effects, smaller number of animals (five in each group can be administered three doses of peptide (5 mg/kg, 3 mg/kg and 1.5 mg/kg). After the initial experiments, the dose of the peptide can be decided. A solution of the peptide (sterile saline) can be injected through the ear vein, once a week for the duration of the study (based on previous experience, for 6 weeks). The study parameters include total cholesterol, lipoprotein levels, LOOH levels, PON activity in the plasma. At the end of six weeks, the rabbits are euthanized and histology assessed.

human VLDL = conditions: cited from earlier work
[7] = tested on: atherogenic apo B-containing lipoproteins in human plasma; conditions: cited from earlier work
[8] = experiments where atherogenic lipoprotein reduction was observed; CLiP; cited from earlier work
[9] = peptide-associated VLDL, absence of apo E

Ac-LRKLRKRLLRDWLKAFYDKVAEKLKEAF-NH2 [Ac-hE-18A-NH2]
decreased lesion compared to control group (apo E null mice; 50 ug/mouse retroorbital, 3 times weekly, four weeks, sixteen week old female apo E null mice, en face, p<0.001): 40% | loss of animals / visible injury (apo E null mice; 12 retroorbital administrations, 50 ug/mouse): no loss of animals and no visible injury to animals was observed | prebeta-HDL production (HepG2 cells; equal amount on weight basis (50 ug/ml), first overnight incubation): produced preβ-HDL | prebeta-HDL amount after second and third overnight incubation (HepG2 cells; fresh cell medium without peptide): produced significant amounts | effect on MCP-1 [1]: also inhibited | intensity of 36 kDa apo E band relative to medium of control cells [2]: 4 times | effect on plasma cholesterol levels [3]: no effect | association with B-100-containing particles [4]: not able to associate | less aorta lesion than control (Oil Red O) ([5]; 3 mg/kg i.v. twice, sacrificed 51 days after initiation of diet): 40-50% | amounts of VLDL and LDL in plasma ([5]; 3 mg/kg i.v., 14 days after first administration, n=3): Significantly decreased | lesion by en face analysis after 50 days ([5]; 3 mg/kg, saline-treated control ~50% lesion coverage): little to no lesion | decrease in plasma cholesterol ([5]; 5 mg/kg iv two times, n=4 (FIG. 11 legend)): 50% | plasma cholesterol values at end of 14 days ([5]; 5 mg/kg iv two times, n=4, control in the range of 2000 mg/dl): ~1000 mg/dL | plasma cholesterol less than in control rabbits at end of experiment ([5]; 7.5 mg/kg i.v. in two intervals one week apart): 50% | duration of reduction of plasma cholesterol after peptide administration ([5]; NZW rabbits fed 1% cholesterol diet): 14 days | endothelial function, acetylcholine dose-dependent aortal relaxation ([5]; aortal rings after 51 days of 1% cholesterol diet): vascular response almost similar to aortas obtained from rabbits on a normal diet | time for which total plasma cholesterol levels were significantly decreased ([5]; single intravenous administration 3 mg/kg): 15 days | plasma clearance of the peptide (3 mg/kg radiolabelled peptide): much faster than that observed in WHHL rabbits | plasma residence time t1/2 (rabbits): 1 to 2 min | average body weight [6]: 4.8 ± 0.4 kg | average daily food intake [6]: 0.17 ± 0.03 kg | interaction with VLDL (human VLDL): displacement of apo E from VLDL | enhanced degradation of VLDL compared to VLDL alone (human VLDL; [9]): three | enhanced uptake of VLDL compared to VLDL alone (human VLDL; [9]): six | association with atherogenic apo B-containing lipoproteins [7]: associates with atherogenic apo B-containing lipoproteins | effect on HDL levels [8]: did not reduce HDL levels
